Assay results from paper PMC5352362, “Molecular and functional evaluation of a novel HIF inhibitor, benzopyranyl 1,2,3-triazole compound” (Oncotarget, 2016).
Read-outs that look alike come from different tables or passages of the source.

Columns and labels:
[1] = test system: HIF-1α; conditions: cited from earlier work
[2] = test system: Lewis lung carcinoma (LLC) cells; assay: Lewis lung carcinoma allograft in C57BL/6J mice with immunohistochemistry; type: in vivo, mouse
Protocol: HIF-1α is synthesized by growth factor signaling pathways, such as those of EGFR [30] [31]. Inhibition of HIF-1α in its pathways of synthesis, as well as in its pathway of degradation, would seem to make for a more efficient anti-cancer/anti-angiogenesis treatment. To confirm this, we performed a tumor allogaft experiment using Lewis lung carcinoma (LLC) cells. 1 × 10^6 LLC cells were inoculated into the mouse flank subcutaneously (s.c.), and treatment with Compound 12 (5 mg/kg) and/or gefitinib (an EGFR inhibitor, 50 mg/kg), via intraperitoneal (i.p.) administration, was performed every other day for 20 days. At Day 20, mice were sacrificed and tumor tissue was fixed in formaldehyde for 1 h for further histological examination. […] To confirm the effect of Compound 12 on angiogenesis, we analyzed angiogenesis using the Matrigel plug assay. […] To confirm the effects of Compound 12 on anti-angiogenesis, we sectioned the tumor tissues to determine microvessel density (MSD) via immunohistochemistry (using CD31 antibody).
Figure 6 Compound 12 suppressed allogaft tumor growth and enhanced the effects of a chemotherapeutic agent (A, B) Lewis lung carcinoma cells were inoculated into flanks of C57BL/6J mice (Day 0). From two days after inoculation, mice were treated intraperitoneally with Compound 12 (5 mg/kg body weight) and gefitinib (50 mg/kg body weight), three times a week, for 18 days and then sacrificed. Tumor size (A) and tumor weight (B) were measured three times a week and on the final day, respectively. Tumor masses were photographed and shown in box below the graph. **P < 0.05 versus control group. (C) Matrigel was treated with DMSO, Compound 12 (100 nM), and gefitinib (5 μM) and inoculated in the flank of C57BL/6J mice. After 10 days matrigel plug was removed and photographed. The content of hemoglobin was quantified and graphed. (D) Tumor tissue sections (10 μm) indicated were stained with H&E and immunostained with anti-CD31 antibody to detect microvessel density; CD31+ cell percentages were then calculated and graphed. Scale bar, 100 μm. **P < 0.05 versus control group. (E) Images and quantitative comparisons (graph) for hypoxic regions, immunostained CA9 protein, and microvessels (CD31+ cells) in tumor center regions are shown. Scale bar, 100 μm. **P < 0.05 versus control group. (F) Images and quantitative comparisons (graph) for Ki67+ proliferating cells in tumor center regions are shown. Scale bar, 100 μm. **P < 0.05 versus control group.
We determined levels of hypoxia in tissues via: 1) antibodies against the hypoxic cell marker pimonidazole (PIMO), and 2) checking expression levels of carbonic anhydrase (CA9), a downstream target of HIF-1.
LLC cells (1 × 10^6) were injected subcutaneously into the flanks of 6-week-old C57BL/6J mice (Day 0)(SLC, Japan). Tumor size and body weight were measured 3 time a week. Tumor tissues were removed at day 20 after completion of injection of vehicle or drugs and fixed with 4% paraformaldehyde (PFA). After tissue processing for frozen sample preparation protocol, samples were embedded in OCT compound and frozen quickly by liquid nitrogen. Frozen blocks were cut into 10 μm sections and stained with hematoxylin and eosin (H&E) for light microscopy. Additional tissue sections for immunohistochemistry were blocked with 5% goat serum in PBST (0.03% Triton X-100 in PBS) and then incubated for 3 h at RT with following primary antibodies, anti-CD31 and anti-Ki67. To detect the hypoxic area in the tumors, Hypoxyprobe-1™ (60 mg/kg, Natural Pharmacia International) was iv injected 90 min before tissue fixation. Tumors were harvested, sectioned and stained with FITC-conjugated anti-Hypoxyprobe antibody.

[3] = test system: angiogenesis (hemoglobin content of Matrigel plug); assay: Matrigel plug assay in C57BL/6J mice; type: in vivo, mouse; conditions: Compound 12 100 nM, gefitinib 5 μM in Matrigel, 10 days
Protocol: HIF-1α is synthesized by growth factor signaling pathways, such as those of EGFR [30] [31]. Inhibition of HIF-1α in its pathways of synthesis, as well as in its pathway of degradation, would seem to make for a more efficient anti-cancer/anti-angiogenesis treatment. To confirm this, we performed a tumor allogaft experiment using Lewis lung carcinoma (LLC) cells. 1 × 10^6 LLC cells were inoculated into the mouse flank subcutaneously (s.c.), and treatment with Compound 12 (5 mg/kg) and/or gefitinib (an EGFR inhibitor, 50 mg/kg), via intraperitoneal (i.p.) administration, was performed every other day for 20 days. […] To confirm the effect of Compound 12 on angiogenesis, we analyzed angiogenesis using the Matrigel plug assay. […]
Figure 6 Compound 12 suppressed allogaft tumor growth and enhanced the effects of a chemotherapeutic agent (A, B) Lewis lung carcinoma cells were inoculated into flanks of C57BL/6J mice (Day 0). […] Tumor size (A) and tumor weight (B) were measured three times a week and on the final day, respectively. […] The content of hemoglobin was quantified and graphed. (D) Tumor tissue sections (10 μm) indicated were stained with H&E and immunostained with anti-CD31 antibody to detect microvessel density; CD31+ cell percentages were then calculated and graphed. […] (F) Images and quantitative comparisons (graph) for Ki67+ proliferating cells in tumor center regions are shown. […]

[4] = test system: chick chorioallantoic membrane angiogenesis; assay: Chick embryo chorioallantoic membrane (CAM) assay; type: in vivo; conditions: applied to ED 4.5 CAM for two days; Compound 12 0.1 μg and 1 μg
Protocol: Figure 5 Compound 12 suppressed HIF-1α target gene expression, and confirmation of in vitro results via determination of effects on angiogenesis in vivo (A) A549 cells were treated with Compound 12 (at concentrations of 0 nM, 1 nM, 10 nM, and 100 nM) for 16 h. The mRNA levels of HIF-1α target genes were determined by semiquantitative RT-PCR. β-actin was used as an internal control. D. DMSO vehicle control. N, normoxia; H, hypoxia. (B) A549 cells were treated with serum-reduced culture media containing Compound 12 (at concentrations of 0 nM, 10 nM, and 100 nM) for 16 h. Media supernatant was collected, and secreted VEGF was determined by ELISA after removal of cellular debris. N, normoxia; H, hypoxia. **P < 0.01 versus hypoxia (H) DMSO (D)-treated control. (C) HUVECs were treated with Compound 12, at the indicated concentrations, in the presence of VEGF (20 ng/mL) for 24 h in 1% serum-containing media. […] Cells that migrated through the membrane (8 μm pore size) were stained with hematoxylin and eosin, pictured as shown in upper panel, and counted (graph). *P < 0.05, **P < 0.01 versus VEGF-treated control. […] (F) Compound 12 (0.1 μg and 1 μg dosages) and retinoic acid (RA, positive control) were applied to the ED 4.5 CAM for two days, neovessel formation from the large vessels was observed, and percentages of positive angiogenic eggs (from total eggs tested) were calculated. […]

[5] = read-out: IC50 of HIF-1α inhibitor

SMILES: CC1(C)C=Cc2c(ccc(C(=O)/C=C/c3cccs3)c2O)O1 [SYP-5]
- IC50 [1, 5]: 10 µM

SMILES: CS[C@H]1SC[C@H]2C(=O)N(C)[C@@H](C(C)C)C(=O)OC[C@@H](NC(=O)c3cnc4ccccc4n3)C(=O)N[C@@H](C)C(=O)N(C)[C@@H]1C(=O)N(C)[C@@H](C(C)C)C(=O)OC[C@@H](NC(=O)c1cnc3ccccc3n1)C(=O)N[C@@H](C)C(=O)N2C [echinomycin]
- IC50 ([1]; reference not given, read-out: inhibitory concentration of HIF-1α inhibitor): 0.0012 µM

SMILES: CC(C)C[C@H](NC(=O)[C@H](Cc1ccccc1)NC(=O)c1cnccn1)B(O)O [bortezomib]
- concentrations inhibiting p300-HIF-1α binding / HIF-1α ([1]; prostate cancer cells): 0.6 to 30 nM

SMILES: COC(=O)c1ccc(O)c(NC(=O)COc2ccc(C34CC5CC(CC(C5)C3)C4)cc2)c1 [LW6]
- IC50 [1, 5]: 2.5 to 3 µM

SMILES: OCc1ccc(-c2nn(Cc3ccccc3)c3ccccc23)o1 [YC-1, 3-(5′-hydroxymethyl-2′-furyl)-1-benzyl indazole]
- IC50 [1, 5]: 2 to 50 µM

SMILES: COc1cc2ncnc(Nc3ccc(F)c(Cl)c3)c2cc1OCCCN1CCOCC1 [gefitinib, reference compound]
- levels of PIMO and CA9 in tumors, single agent ([2]; LLC allograft tumor sections): significantly diminished
- microvessel density (MSD), CD31, single agent ([2]; LLC allograft tumor sections): significantly decreased MSD
- cells expressing Ki-67 protein in tumors ([2]; LLC allograft tumor sections, single agent): significantly decreased
- tumor growth, single agent ([2]; LLC allograft, C57BL/6J mice, i.p., Compound 12 5 mg/kg, gefitinib 50 mg/kg): inhibited tumor growth significantly
- anti-angiogenic activity, Matrigel plug (hemoglobin content) [3]: anti-angiogenic activity was increased

SMILES: CC1=C(/C=C/C(C)=C/C=C/C(C)=C/C(=O)O)C(C)(C)CCC1 [retinoic acid, reference compound]
- CAM angiogenesis [4]: significantly suppressed CAM angiogenesis
